# Measurements from patent US10874103B2, “Antibacterial composition comprising an acetal or a long-chain alkyl hexitane ether” (TEREOS STARCH & SWEETENERS BELGIUM, priority 2014, dated 2020).
# Assays:
# [1] = tested on: E. faecalis (ATCC® 29212™); assay: MBC, bacterial count from clear wells reseeded on agar (Example 5); assay type: cell-based; conditions: Table 2; reseeded on agar
# Procedure: (§1) To determine whether the agents tested are bactericidal, the minimum bactericidal concentration (MBC) is determined. The MBC corresponds to the concentration leaving a number of bacterial survivors of <4 log. For this, a bacterial count is run from clear wells or without bacterial residue (C≤MIC). To do this, a dilution to 1/100 was conducted with the two wells with the same concentration before seeding on a blood agar using the Spiral technique. After 24 h of incubation at 37° C., the visual count allowed determination of the minimum concentration from which there is no bacterial growth.
# (§2) To determine the bactericidal effect of compounds presenting bacteriostatic properties, the wells no longer presenting turbidity were reseeded on agar.
# [2] = tested on: L. monocytogenes (CIP 103575); assay: as above; assay type: cell-based; conditions: Table 2; reseeded on agar
# Procedure: as §1, §2
# [3] = tested on: S. aureus (ATCC® 292213™); assay: as above; assay type: cell-based; conditions: Table 2
# Procedure: as §1, §2
# [4] = tested on: L. monocytogenes (CIP 103575), E. faecalis (ATCC® 29212™) and S. aureus (ATCC® 292213™); assay: MBC, statement for all Gram-positive strains tested together; assay type: cell-based; conditions: all three strains
# Procedure: as §1, §2
# [5] = tested on: Staphylococcus Aureus strains; assay: MIC microdilution on wider panel (Example 8), Staphylococcus strains; assay type: cell-based, S. aureus
# Procedure: (§3) The cultures studied, freshly isolated (after incubation on a blood agar at 37° C. for 18 h), are taken up in sterile water (10 mL) until a 0.5 McFarland (Mc) suspension i.e. at 1 to 2×10^8 CFU (bacteria)/cm^3 is obtained. The bacterial suspension was then diluted to obtain a final concentration of 1×10^6 CFU/cm^3.
# (§4) Each well contains an identical quantity of Mueller-Hinton medium (a rich medium for bacterial culture) and bacteria with final 0.5×10^6 CFU/cm^3.
# (§5) The test compounds of interest are solubilized in ethanol or DMSO at 25 mg/mL before being diluted to different concentrations two by two. On the multiwell plate, a first series has been planned comprising the culture medium without the test compound of interest. It corresponds to the growth control (control well). These controls serve as reference for comparing bacterial growth with that of the subsequent wells comprising different concentrations of the test compound of interest. The second series of wells comprises the mother solution for the test compound of interest for a concentration in the wells of 256 mg (7 mM). Each series of wells was diluted two by two until the last series for a final concentration of 0.25 mg/L (0.0007 mM). Each concentration is duplicated in the same plate. The plate is incubated for 18 h at 37° C. […] If there is antibacterial activity, the bacterial growth is inhibited, which means that no turbidity or bacterial residue is present.
# (§6) The minimum inhibitory concentrations (MIC) are tested on Gram-positive bacterial strains according to the recommendations of the “Clinical Laboratory Standards Institute” (Clinical-Laboratory-Standards-Institute, 6th ed. Approved standard M100-S17. CLSI, Wayne, Pa., 2007). The clinical strains have been isolated in the Hospice de Lyon.
# Staphylococci S. aureus: ATCC® 29213™, ATCC 25923,
# Staphylococci strains Daptomycin-resistant S. aureus (ST 2015-0188), (ST 2014 1288).
# as §3, with “10^8” for “1 to 2×10^8”, “10^6” for “1×10^6”
# [6] = tested on: Enterococci: E. faecalis strains; assay: MIC microdilution on wider panel (Example 8), E. faecalis strains; assay type: cell-based
# Procedure: The cultures studied, freshly isolated (after incubation on a blood agar at 37° C. for 18 h), are taken up in sterile water (10 mL) until a 0.5 McFarland (Mc) suspension i.e. at 1 to 2×10^8 CFU (bacteria)/cm^3 is obtained. The bacterial suspension was then diluted to obtain a final concentration of 1×10^6 CFU/cm^3. Each well contains an identical quantity of Mueller-Hinton medium (a rich medium for bacterial culture) and bacteria with final 0.5×10^6 CFU/cm^3. The test compounds of interest are solubilized in ethanol or DMSO at 25 mg/mL before being diluted to different concentrations two by two. On the multiwell plate, a first series has been planned comprising the culture medium without the test compound of interest. It corresponds to the growth control (control well). These controls serve as reference for comparing bacterial growth with that of the subsequent wells comprising different concentrations of the test compound of interest. The second series of wells comprises the mother solution for the test compound of interest for a concentration in the wells of 256 mg (7 mM). Each series of wells was diluted two by two until the last series for a final concentration of 0.25 mg/L (0.0007 mM). Each concentration is duplicated in the same plate. The plate is incubated for 18 h at 37° C. […] If there is antibacterial activity, the bacterial growth is inhibited, which means that no turbidity or bacterial residue is present. The minimum inhibitory concentrations (MIC) are tested on Gram-positive bacterial strains according to the recommendations of the “Clinical Laboratory Standards Institute” (Clinical-Laboratory-Standards-Institute, 6th ed. Approved standard M100-S17. CLSI, Wayne, Pa., 2007). The clinical strains have been isolated in the Hospice de Lyon. […]
# [7] = tested on: Enterococci: E. faecium strains; assay: MIC microdilution on wider panel (Example 8), E. faecium strains; assay type: cell-based
# Procedure: as §3, §4, §5, §6
# Enterococci: E. faecium (CIP 103510), clinical strains of Enterococci E. faecium: Van A 0151850763 (hereinafter Van A); strain 015 205731401 (hereinafter 1401), […]
substance,measurement,setting,value
"Dodecyl-1,4-d-sorbitan [Example 2e]",minimum bactericidal concentration (MBC) E. faecalis,[1],120 µM
same,minimum bactericidal concentration (MBC) L. monocytogenes,[2],120 µM
same,minimum bactericidal concentration (MBC) S. aureus,[3],120 µM
same,MBC for all the Gram-positive strains tested,[4],120 µM
same,Minimum inhibitory concentration (MIC) ST 2014 1288,[5]; Daptomycin-resistant S. aureus ST 2014 1288,64 mg/L
same,Minimum inhibitory concentration (MIC) ST 2015 0188,[5]; Daptomycin-resistant S. aureus ST 2015-0188,64 mg/L
same,Minimum inhibitory concentration (MIC) HT 2002-0417,[5]; Methicillin-resistant S. aureus HT 2002-0417,32 mg/L
same,Minimum inhibitory concentration (MIC) HT 2004-0012,[5]; Methicillin-resistant S. aureus HT 2004-0012,32 mg/L
same,Minimum inhibitory concentration (MIC) HT 2006-1004,[5]; Methicillin-resistant S. aureus HT 2006-1004,32 mg/L
same,Minimum inhibitory concentration (MIC) LY 199-0053,[5]; Methicillin-resistant S. aureus LY 199-0053,32 mg/L
same,Minimum inhibitory concentration (MIC) USA 300,[5]; Methicillin-resistant S. aureus Lac-Deleo USA 300,32 mg/L
same,Minimum inhibitory concentration (MIC) MU 3,[5]; Methicillin-resistant S. aureus MU 3,64 mg/L
same,Minimum inhibitory concentration (MIC) ATCC 25923,[5]; S. aureus ATCC 25923,32 mg/L
same,Minimum inhibitory concentration (MIC) ATCC 29213,[5]; S. aureus ATCC 29213,32 mg/L
same,Minimum inhibitory concentration (MIC) ATCC 29212,[6]; E. faecalis ATCC 29212,8 mg/L
same,Minimum inhibitory concentration (MIC) 1801,"[6]; clinical E. faecalis from urines, strain 015205261801",8 mg/L
same,Minimum inhibitory concentration (MIC) 9901,"[6]; clinical E. faecalis from urines, strain 015206179901",16 mg/L
same,Minimum inhibitory concentration (MIC) CIP 103510,[7]; E. faecium CIP 103510,16 mg/L
same,Minimum inhibitory concentration (MIC) Van A,[7]; clinical E. faecium Van A 0151850763,16 mg/L
same,Minimum inhibitory concentration (MIC) 1401,[7]; clinical E. faecium strain 015 205731401,8 mg/L
